Key:
Assay type in all cases: cell-based
[1] = tested on: primary human fibroblasts derived from IPF patients (LL29 cells) treated with TGF-β1; test: Inhibition of the fibrotic process: αSMA staining in TGF-β1 treated LL29 fibroblasts; conditions: Fibroblast; for EC50: 96 h, LL29 cells, TGF-β1 20 ng/mL, 4 days, % αSMA positive cells; for inhibition at 10 µM: read-out: percent inhibition at 10 μM
Experimental: Representative compounds were screened using primary human fibroblasts (derived from IPF patients) treated with TGF-β1 to determine their ability to inhibit the fibrotic process.
LL29 cells are plated at 1,500 cells/well in 80 μL/well F12 medium supplemented with 1% Fetal Bovine Serum. […] Wells treated with TGF-β1 and containing DMSO were used as controls. […] Following incubation for 4 days, SYTOX green nucleic acid stain (Life Technologies [Thermo Fisher Scientific]) was added to the wells at a final concentration of 1 μM and incubated at room temperature for 30 min.

[2] = tested on: Wnt activity (Sp5-Luc reporter, SW480 colon carcinoma cells); test: Wnt activity screening assay, Sp5-Luc reporter gene in SW480 cells; conditions: Homo sapiens; for inhibition at 10 µM: SW480, read-out: percent inhibition at 10 μM; for EC50: Sp5-Luc reporter, SW480 cells, overnight incubation
Excerpt: The screening assay for Wnt activity is described as follows. Reporter cell lines can be generated by stably transducing cancer cell lines (e.g., colon cancer) or primary cells (e.g., IEC-6 intestinal cells) with a lentiviral construct that includes a Wnt-responsive promoter driving expression of the firefly luciferase gene.
SW480 colon carcinoma cells were transduced with a lentiviral vector expressing luciferase with a human Sp5 promoter consisting of a sequence of eight TCF/LEF binding sites. SW480 cells stably expressing the Sp5-Luc reporter gene and a hygromycin resistance gene were selected by treatment with 150 μg/mL of hygromycin for 7 days. These stably transduced SW480 cells were expanded in cell culture and used for all further screening activities. […] For Sp5-Luc reporter gene assays, the cells were plated at 4,000 cells/well in 384-well plates with medium containing 1% fetal bovine serum and incubated overnight at 37° C. and 5% CO2. Following incubation, 20 μl of BrightGlo luminescence reagent (Promega) was added to each well of the 384-well assay plates. The plates were placed on an orbital shaker for 2 min and then luminescence was quantified using the Envision (Perkin Elmer) plate reader. Readings were normalized to DMSO only treated cells, and normalized activities were utilized for EC50 calculations using the dose-response log (inhibitor) vs. response -variable slope (four parameters) nonlinear regression feature available in GraphPad Prism 5.0 (or Dotmatics).

[3] = tested on: SW480 colon cancer cells; test: Cell viability assay (CellTiter-Blue), SW480 cells, four days; conditions: Homo sapiens; for EC50: 96 h, SW480 cell viability, four days, CellTiter-Blue; for inhibition at 10 µM: SW480, read-out: percent inhibition at 10 μM
Experimental: Representative compounds were screened using the following assay procedure to assess the effect on cell viability as described below.
Approximately 2×10^3 SW480 colon cancer cells were seeded into each well and allowed to incubate in the presence or absence of compound for four days at 37° C./5% CO2. Eight replicates of DMSO-treated cells served as controls and cells treated with compound were performed in duplicate.
After incubation, 20 μL of CellTiter-Blue (Promega) was added to each well allowed to incubate for approximately 3 hours. This reagent was a buffered solution which contains resazurin, metabolically active cells were able to reduce rezarurin (blue) into resorufin (pink) which was highly fluorescent. This measured fluorescence was used as a readout for cell viability.

[4] = tested on: IL-6 (THP-1 human monocyte cell line); test: IL-6 inhibition in LPS-stimulated THP-1 cells (HTRF); conditions: for EC50: IL-6 inhibition, LPS-stimulated THP-1 cells, HTRF; for inhibition at 10 µM: THP-1, read-out: percentage in parentheses beside EC50 >10 (IL-6 inhibition)
Experimental: THP-1 cells were cultured in basal media with 1% FBS for 24 hours before the start of the assay. […] THP-1 cells were plated at 5000 cells/well in the 384-well plates and incubated at 37° C. for 2 h. 500 ng/mL of LPS was added after 2 hours and cells were incubated for another 22 hours at 37° C. Plates were spun in a centrifuge for 1 minute at […] and a mixture of anti-IL6 XL665, and anti-IL6 Cryptate diluted in reconstitution buffer (Cisbio Inc.) was added to each well. Following incubation for 3 hrs at room temperature, Homogeneous Time-Resolved Fluorescence (HTRF) was measured using the Envision (Perkin Elmer) at 665 nm and […]. The ratio of fluorescence at 665 nm to 620 nm was used as a readout for IL6 quantification. All samples were processed in duplicate. Readings were normalized to DMSO treated cells and normalized activities were utilized for EC50 calculations using the dose-response log (inhibitor) vs. response -variable slope (four parameters) nonlinear regression feature available in GraphPad Prism 5.0 (or Dotmatics).

Compound | EC50 [2] [µM] | EC50 [3] [µM] | EC50 [4] [µM] | EC50 [1] [µM] | inhibition at 10 µM [1] [%] | inhibition at 10 µM [2] [%] | inhibition at 10 µM [3] [%] | inhibition at 10 µM [4] [%]
Fc1cccc(-c2ccnc3[nH]c(-c4n[nH]c5ccc(-c6ccncc6)cc45)cc23)c1 [Compound 18, 3-(4-(3-Fluorophenyl)-1H-pyrrolo[2,3-b]pyridin-2-yl)-5-(pyridin-4-yl)-1H-indazole] | > 10 | > 10 | 0.995 | > 10 | 33.6 | 18 | 16.2 | –
Fc1cccc(-c2ccnc3[nH]c(-c4n[nH]c5ccc(-c6ccccn6)cc45)cc23)c1 [Compound 28, 3-(4-(3-Fluorophenyl)-1H-pyrrolo[2,3-b]pyridin-2-yl)-5-(pyridin-2-yl)-1H-indazole] | > 10 | > 10 | > 10 | > 10 | 12 | 8.5 | 12.9 | 21
CC(C)CC(=O)Nc1cncc(-c2ccc3[nH]nc(-c4cc5c(-c6ccc(F)cc6)ccnc5[nH]4)c3c2)c1 [Compound 30, N-(5-(3-(4-(4-Fluorophenyl)-1H-pyrrolo[2,3-b]pyridin-2-yl)-1H-indazol-5-yl)pyridin-3-yl)-3-methylbutanamide] | > 10 | > 10 | > 10 | > 10 | 20.2 | 13.6 | 14.9 | 25.3
O=C(Nc1cncc(-c2ccc3[nH]nc(-c4cc5c(-c6ccc(F)cc6)ccnc5[nH]4)c3c2)c1)c1ccccc1 [Compound 39, N-(5-(3-(4-(4-Fluorophenyl)-1H-pyrrolo[2,3-b]pyridin-2-yl)-1H-indazol-5-yl)pyridin-3-yl)benzamide] | > 10 | > 10 | > 10 | 4.88 | – | 0 | 24.2 | 28.4
CC(C)C(=O)Nc1cncc(-c2ccc3[nH]nc(-c4cc5c(-c6ccccc6F)ccnc5[nH]4)c3c2)c1 [Compound 65, N-(5-(3-(4-(2-Fluorophenyl)-1H-pyrrolo[2,3-b]pyridin-2-yl)-1H-indazol-5-yl)pyridin-3-yl)isobutyramide] | > 10 | > 10 | > 10 | > 10 | 11.7 | 30.5 | 10.8 | 34.9
CC(C)Nc1cncc(-c2ccc3[nH]nc(-c4cc5c(-c6ccccc6F)ccnc5[nH]4)c3c2)c1 [Compound 68, 5-(3-(4-(2-Fluorophenyl)-1H-pyrrolo[2,3-b]pyridin-2-yl)-1H-indazol-5-yl)-N-isopropylpyridin-3-amine] | > 10 | > 10 | 0.384 | > 10 | 0 | 18.7 | 10.9 | –
CC(C)(C)CC(=O)Nc1cncc(-c2ccc3[nH]nc(-c4cc5c(-c6ccccc6F)ccnc5[nH]4)c3c2)c1 [Compound 72, N-(5-(3-(4-(2-Fluorophenyl)-1H-pyrrolo[2,3-b]pyridin-2-yl)-1H-indazol-5-yl)pyridin-3-yl)-3,3-dimethylbutanamide] | > 10 | > 10 | > 10 | > 10 | 5.4 | 9.3 | 12.6 | 10.5
CCCCC(=O)Nc1cncc(-c2ccc3[nH]nc(-c4cc5c(-c6ccccc6F)ccnc5[nH]4)c3c2)c1 [Compound 75, N-(5-(3-(4-(2-Fluorophenyl)-1H-pyrrolo[2,3-b]pyridin-2-yl)-1H-indazol-5-yl)pyridin-3-yl)pentanamide] | > 10 | > 10 | > 10 | > 10 | 29.1 | 13 | 16.8 | 38.2
CC(C)CC(=O)Nc1cncc(-c2ccc3[nH]nc(-c4cc5c(-c6ccsc6)ccnc5[nH]4)c3c2)c1 [Compound 282, 3-Methyl-N-(5-(3-(4-(thiophen-3-yl)-1H-pyrrolo[2,3-b]pyridin-2-yl)-1H-indazol-5-yl)pyridin-3-yl)butanamide] | 2.1 | 6.94 | 0.971 | – | – | – | – | –
COc1cncc(-c2ccc3[nH]nc(-c4cc5c(-c6ccco6)ccnc5[nH]4)c3c2)c1 [Compound 991, 3-(4-(Furan-2-yl)-1H-pyrrolo[2,3-b]pyridin-2-yl)-5-(5-methoxypyridin-3-yl)-1H-indazole] | > 10 | > 10 | 0.012 | – | – | 7.9 | 0 | –

Now from value to compound, other results behind:

EC50 [2] [µM] | EC50 [3] [µM] | EC50 [4] [µM] | Compound | EC50 [1] [µM] | inhibition at 10 µM [1] [%] | inhibition at 10 µM [2] [%] | inhibition at 10 µM [3] [%] | inhibition at 10 µM [4] [%]
0.035 | 1.06 | > 10 | O=C(Nc1cncc(-c2ccc3[nH]nc(-c4cc5c(-c6cccc(F)c6)ccnc5[nH]4)c3c2)c1)C1CC1 [Compound 20, N-(5-(3-(4-(3-Fluorophenyl)-1H-pyrrolo[2,3-b]pyridin-2-yl)-1H-indazol-5-yl)pyridin-3-yl)cyclopropanecarboxamide] | 7.73 | – | – | – | 34.5
> 10 | > 10 | 0.285 | Fc1cccc(-c2ccnc3[nH]c(-c4n[nH]c5ccc(-c6cncc(CN7CCC(F)(F)C7)c6)cc45)cc23)c1 [Compound 26, 5-(5-((3,3-Difluoropyrrolidin-1-yl)methyl)pyridin-3-yl)-3-(4-(3-fluorophenyl)-1H-pyrrolo[2,3-b]pyridin-2-yl)-1H-indazole] | 1.96 | – | 49 | 40.6 | –
> 10 | > 10 | > 10 | CC(C)(C)C(=O)Nc1cncc(-c2ccc3[nH]nc(-c4cc5c(-c6ccc(F)cc6)ccnc5[nH]4)c3c2)c1 [Compound 36, N-(5-(3-(4-(4-Fluorophenyl)-1H-pyrrolo[2,3-b]pyridin-2-yl)-1H-indazol-5-yl)pyridin-3-yl)pivalamide] | > 10 | 0 | 11.7 | 33.1 | 19.3
> 10 | > 10 | > 10 | CCCC(=O)Nc1cncc(-c2ccc3[nH]nc(-c4cc5c(-c6ccc(F)cc6)ccnc5[nH]4)c3c2)c1 [Compound 45, N-(5-(3-(4-(4-Fluorophenyl)-1H-pyrrolo[2,3-b]pyridin-2-yl)-1H-indazol-5-yl)pyridin-3-yl)butyramide] | 5.24 | – | 11 | 30.7 | 25.8
> 10 | > 10 | > 10 | O=C(Nc1cncc(-c2ccc3[nH]nc(-c4cc5c(-c6ccc(F)cc6)ccnc5[nH]4)c3c2)c1)C1CCC1 [Compound 49, N-(5-(3-(4-(4-Fluorophenyl)-1H-pyrrolo[2,3-b]pyridin-2-yl)-1H-indazol-5-yl)pyridin-3-yl)cyclobutanecarboxamide] | > 10 | 3.2 | 10.6 | 11.8 | 29.6

Source: patent US10350199B2, “3-(1h-pyrrolo[2,3-b]pyridin-2-yl)-1h-indazoles and therapeutic uses thereof” (Samumed, LLC, priority 2015, dated 2019)
